Measurements published in ChEMBL document CHEMBL5120923, “Tamarixetin Attenuated the Virulence of Staphylococcus aureus by Directly Targeting Caseinolytic Protease P” (J Nat Prod, 2022).

Legend:
[1] = tested on: Staphylococcus aureus; experiment: Inhibition of Hla protein expression in methicillin-resistant Staphylococcus aureus USA300 at 4 to 64 ug/ml incubated for overnight by western blot analysis; format: functional; details: dose 4-64 µg/ml, DDE = dose-dependent effect
[2] = tested on: Staphylococcus aureus; experiment: Inhibition of Hla protein expression in methicillin-resistant Staphylococcus aureus Newman at 4 to 64 ug/ml incubated for overnight by western blot analysis; format: functional; details: dose 4-64 µg/ml, DDE = dose-dependent effect

SMILES: COc1ccc(-c2oc3cc(O)cc(O)c3c(=O)c2O)cc1O [TAMARIXETIN]
- inhibition [1]: Dde
- inhibition [2]: Dde
